This passage reports IC50 results from patent US12226414B2, “1-isopropyl-3-methyl-8-(pyridin-3-yl)-1,3-dihydro-2H-imidazo[4,5-c] cinnolin-2-one as selective modulators of ataxia telangiectasia mutated (ATM) kinase and uses thereof” (SUZHOU ZANRONG PHARMA LIMITED, priority 2018, dated 2025).

One assay concerns the target PIK3Cβ (p110β) (Homo sapiens (Human), UniProt P42338). The assay can be described thus: PI3K biochemical potency assay (PI3Kβ). How it is done:
(§1) PI3Kα (p110α/p85a), PIK3C δ, PIK3Cβ (p110β), PIK3Cγ (pp110γ) kinase reaction solutions of PI3Kα (Invitrogen, Cat. No. PV4788), PIK3Cδ (Invitrogen, Cat. No. PV6452), PIK3Cβ (Millipore, Cat. No. 14-603-K), PIK3Cγ (Invitrogen, Cat. No. PR8641C) enzymes were prepared in 1× kinase buffer at 4-fold of the final concentration (final concentration: PI3Kα 0.7 nM, PIK3Cδ 3 nM, PIK3Cβ 4.8 nM, PIK3Cγ 11 nM) of each reagent in the assay. 2.5 μl of kinase solution was added to each well of the 384-well assay plate, which contains 2.5 μl of compounds with serially diluted concentration. 2× substrate solution was prepared with PIP2 substrate and ATP in 1× kinase reaction buffer at 2-fold of the final concentration of each reagent in the assay. 5 μl of substrate solution was added to each well of the assay plate to start reaction. The assay plate was incubated at room temperature for 1 hour. 5 μl reaction mix was transferred to a new 384 well plate. 5 μl of ADP-Glo reagent (Promega, Cat. No. v9102/3, Lot. No. 0000176563) was added to each well of the new assay plate to stop the reaction. The plate was shaken slowly and equilibrated for 40 minutes. 10 μl kinase detection reagents was added to each well, which was equilibrated for 60 minutes before read on a plate reader (Envision) for luminescence.

The next assay addresses ATR (Homo sapiens (Human), UniProt Q13535). Kind of assay: ATR biochemical potency assay. How it is done: ATR enzyme was made by ChemPartner (batch: CP-ATR-20161102-M2). 2× enzyme solutions were prepared in 1× kinase base buffer. 10 μl of 2× enzyme solution (final concentration: 2.5 nM) was added to each well of the 384-well assay plate containing 60 nl compound in each well. The plate was incubated at room temperature for 10 minutes. 2× peptide solutions were prepared with FAM-labeled peptide and ATP in the 1× kinase base buffer. 10 μl of 2× peptide solution was added to each well of the 384-well assay plate, which was incubated at 28° C. for 240 min. 40 μl of stop buffer was added to stop reaction. Data were collected by Caliper.

The target of a further assay is PI3Kα (p110α/p85a) (Homo sapiens (Human), UniProt P42336). The assay can be described thus: PI3K biochemical potency assay (PI3Kα). How it is done:
as §1

A further assay concerns the target PIK3Cγ (pp110γ) (Homo sapiens (Human), UniProt P48736). Kind of assay: PI3K biochemical potency assay (PI3Kγ). How it is done:
as §1

Another assay addresses mTOR (Homo sapiens (Human), UniProt P42345). Kind of assay: mTOR biochemical potency assay. How it is done:
Solution of mTOR enzymes (Millipore, Cat. No. 14-770, Lot. No. 2052551) was prepared in 1× kinase buffer at 4-fold of the final concentration (final concentration: 6 nM) in the assay. 2.5 μl of kinase solution was added to each well of the 384-well assay plate, which contains 2.5 μl of compounds with serially diluted concentration. 2× substrate solution was prepared with ULight-4E-BP1 (Thr37/46) Peptide (PE, Cat. No. TRF0128-M, Lot. No. 1695274) and ATP in 1× kinase reaction buffer at 2-fold of the final concentration of each reagent in the assay. 5 μl of substrate solution was added to each well of the assay plate to start reaction. The assay plate was incubated at room temperature for 30 minutes. Detection solution of kinase quench buffer (EDTA) and Eu-anti-phospho-4E-BP1 antibody (Thr37/46) (PE, Cat. No. TRF0216-M, Lot. No. 1571838) were prepared at 2-fold the desired final concentrations of each reagent in Lance detection buffer. 10 μl of detection solution buffer was added to each well of the assay plate. The assay plate was equilibrated for 60 minutes at room temperature before read on a plate reader (Lance signal (665 nm) from Envision program).

For assay [1], the target named is ATM in SN38 treated HT-29 cells (Homo sapiens (Human), UniProt Q13315). Kind of assay: ATM SN-38 HT-29 cellular potency assay.
Sequence of ATM in SN38 treated HT-29 cells (Q13315 whole entry, looked up): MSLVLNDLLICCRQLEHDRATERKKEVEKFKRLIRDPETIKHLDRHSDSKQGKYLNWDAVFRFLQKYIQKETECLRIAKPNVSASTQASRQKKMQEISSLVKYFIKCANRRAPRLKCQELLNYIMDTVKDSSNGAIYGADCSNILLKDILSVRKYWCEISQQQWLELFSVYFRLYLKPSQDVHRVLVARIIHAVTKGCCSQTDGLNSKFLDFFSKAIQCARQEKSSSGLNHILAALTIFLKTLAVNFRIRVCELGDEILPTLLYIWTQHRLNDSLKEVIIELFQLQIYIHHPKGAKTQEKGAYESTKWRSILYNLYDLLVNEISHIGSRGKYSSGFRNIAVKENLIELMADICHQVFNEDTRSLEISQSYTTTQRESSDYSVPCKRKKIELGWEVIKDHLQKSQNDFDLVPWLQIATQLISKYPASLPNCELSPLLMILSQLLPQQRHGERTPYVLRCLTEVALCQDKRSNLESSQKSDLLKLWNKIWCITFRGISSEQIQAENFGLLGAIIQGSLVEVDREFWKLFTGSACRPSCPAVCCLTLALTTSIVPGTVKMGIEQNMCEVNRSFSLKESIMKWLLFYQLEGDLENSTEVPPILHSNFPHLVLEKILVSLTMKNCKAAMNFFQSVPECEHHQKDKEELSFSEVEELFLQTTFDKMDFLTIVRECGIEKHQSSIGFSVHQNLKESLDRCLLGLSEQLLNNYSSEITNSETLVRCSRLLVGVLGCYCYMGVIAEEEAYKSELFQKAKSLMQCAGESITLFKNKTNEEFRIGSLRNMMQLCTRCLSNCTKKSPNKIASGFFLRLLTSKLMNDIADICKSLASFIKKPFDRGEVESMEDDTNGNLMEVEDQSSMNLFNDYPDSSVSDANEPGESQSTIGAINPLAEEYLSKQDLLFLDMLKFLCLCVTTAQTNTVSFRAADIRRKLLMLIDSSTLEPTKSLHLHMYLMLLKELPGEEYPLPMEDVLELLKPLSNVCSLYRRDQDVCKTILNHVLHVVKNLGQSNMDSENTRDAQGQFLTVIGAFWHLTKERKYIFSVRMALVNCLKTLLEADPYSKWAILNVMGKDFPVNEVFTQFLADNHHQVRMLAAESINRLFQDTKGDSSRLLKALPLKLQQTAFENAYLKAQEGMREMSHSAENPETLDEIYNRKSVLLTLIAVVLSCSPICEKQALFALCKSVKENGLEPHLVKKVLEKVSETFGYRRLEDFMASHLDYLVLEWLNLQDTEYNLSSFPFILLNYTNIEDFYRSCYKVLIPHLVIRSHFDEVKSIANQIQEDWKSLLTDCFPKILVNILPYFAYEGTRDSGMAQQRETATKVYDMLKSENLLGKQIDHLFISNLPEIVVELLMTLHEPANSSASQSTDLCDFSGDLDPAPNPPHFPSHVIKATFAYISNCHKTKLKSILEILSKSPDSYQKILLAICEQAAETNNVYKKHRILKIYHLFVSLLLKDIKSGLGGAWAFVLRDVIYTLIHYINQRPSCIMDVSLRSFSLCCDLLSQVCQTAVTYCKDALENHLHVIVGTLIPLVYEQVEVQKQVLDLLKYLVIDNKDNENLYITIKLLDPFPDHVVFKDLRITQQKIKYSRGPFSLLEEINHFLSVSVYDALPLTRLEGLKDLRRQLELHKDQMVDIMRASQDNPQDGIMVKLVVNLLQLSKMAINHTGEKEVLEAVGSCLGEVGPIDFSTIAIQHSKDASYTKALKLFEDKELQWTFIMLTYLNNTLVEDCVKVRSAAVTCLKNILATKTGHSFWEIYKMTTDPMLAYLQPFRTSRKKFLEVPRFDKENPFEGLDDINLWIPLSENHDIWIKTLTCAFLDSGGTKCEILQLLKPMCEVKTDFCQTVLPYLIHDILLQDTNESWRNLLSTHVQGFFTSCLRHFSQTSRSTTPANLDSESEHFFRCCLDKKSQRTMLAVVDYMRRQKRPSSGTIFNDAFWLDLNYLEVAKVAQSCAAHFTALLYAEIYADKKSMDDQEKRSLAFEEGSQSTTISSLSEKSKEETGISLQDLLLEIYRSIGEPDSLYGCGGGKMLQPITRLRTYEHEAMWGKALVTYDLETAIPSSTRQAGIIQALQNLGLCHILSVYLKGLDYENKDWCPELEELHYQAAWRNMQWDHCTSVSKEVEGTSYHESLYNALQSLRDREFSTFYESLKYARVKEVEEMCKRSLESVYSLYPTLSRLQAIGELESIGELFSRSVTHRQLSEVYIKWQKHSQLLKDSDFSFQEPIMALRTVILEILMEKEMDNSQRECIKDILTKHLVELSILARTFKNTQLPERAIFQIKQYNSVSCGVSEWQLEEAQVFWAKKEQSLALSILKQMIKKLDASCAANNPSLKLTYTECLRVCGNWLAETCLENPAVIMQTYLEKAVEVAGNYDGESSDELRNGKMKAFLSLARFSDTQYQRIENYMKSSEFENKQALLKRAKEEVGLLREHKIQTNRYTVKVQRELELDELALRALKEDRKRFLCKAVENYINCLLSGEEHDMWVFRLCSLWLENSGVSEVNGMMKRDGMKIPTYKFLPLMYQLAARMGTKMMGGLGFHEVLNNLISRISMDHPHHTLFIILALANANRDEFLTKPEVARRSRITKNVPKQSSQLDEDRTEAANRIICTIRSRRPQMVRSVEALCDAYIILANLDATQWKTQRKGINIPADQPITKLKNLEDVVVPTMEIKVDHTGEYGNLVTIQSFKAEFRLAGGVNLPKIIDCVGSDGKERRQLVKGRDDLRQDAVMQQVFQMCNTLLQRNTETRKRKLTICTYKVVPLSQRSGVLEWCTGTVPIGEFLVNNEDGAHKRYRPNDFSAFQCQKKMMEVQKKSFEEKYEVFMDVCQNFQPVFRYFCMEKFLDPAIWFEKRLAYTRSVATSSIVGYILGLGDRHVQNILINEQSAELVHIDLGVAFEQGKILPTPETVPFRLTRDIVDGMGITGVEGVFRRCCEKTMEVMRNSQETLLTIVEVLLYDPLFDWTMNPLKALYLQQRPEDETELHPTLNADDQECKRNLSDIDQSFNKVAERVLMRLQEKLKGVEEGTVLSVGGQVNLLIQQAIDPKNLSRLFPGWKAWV
Description: Inhibition of ATM was evaluated in SN38 treated HT-29 cells (ATCC, Cat #HTB-38) by high-Content Imaging System
HT-29 cells were trypsinized and approximately 10,000 cells were seeded per well to 96-well microplates which were incubated overnight at 37° C. and 5% CO2. Test compounds were added to the 96-well plates which were incubated at 37° C. and 5% CO2 for 1 hour. […] After the plates were rinsed 3 times with PBSA, 50 μl permeabilization buffer (0.1% Triton-X 100 in PBSA) was added and the plates were incubated for 20 minutes at room temperature. After the plates were rinsed once with PBSA, 50 μl primary antibody solution was added and the plates were incubated in at 4° C. overnight. […] The plates were rinsed with PBST 3 times and then 100 μl PBSA were added per well. The plates were sealed with black plate seals.
The next assay has as its target ATM (Homo sapiens (Human), UniProt Q13315). Kind of assay: ATM biochemical potency assay. How it is done: The plate was incubated at room temperature for 10 minutes. […] Data was collected by Caliper.
The target of a further assay is PIK3Cδ (Homo sapiens (Human), UniProt O00329). The assay can be described thus: PI3K biochemical potency assay (PI3Kδ). How it is done:
as §1

Sequence of PIK3Cδ (O00329 whole entry, looked up): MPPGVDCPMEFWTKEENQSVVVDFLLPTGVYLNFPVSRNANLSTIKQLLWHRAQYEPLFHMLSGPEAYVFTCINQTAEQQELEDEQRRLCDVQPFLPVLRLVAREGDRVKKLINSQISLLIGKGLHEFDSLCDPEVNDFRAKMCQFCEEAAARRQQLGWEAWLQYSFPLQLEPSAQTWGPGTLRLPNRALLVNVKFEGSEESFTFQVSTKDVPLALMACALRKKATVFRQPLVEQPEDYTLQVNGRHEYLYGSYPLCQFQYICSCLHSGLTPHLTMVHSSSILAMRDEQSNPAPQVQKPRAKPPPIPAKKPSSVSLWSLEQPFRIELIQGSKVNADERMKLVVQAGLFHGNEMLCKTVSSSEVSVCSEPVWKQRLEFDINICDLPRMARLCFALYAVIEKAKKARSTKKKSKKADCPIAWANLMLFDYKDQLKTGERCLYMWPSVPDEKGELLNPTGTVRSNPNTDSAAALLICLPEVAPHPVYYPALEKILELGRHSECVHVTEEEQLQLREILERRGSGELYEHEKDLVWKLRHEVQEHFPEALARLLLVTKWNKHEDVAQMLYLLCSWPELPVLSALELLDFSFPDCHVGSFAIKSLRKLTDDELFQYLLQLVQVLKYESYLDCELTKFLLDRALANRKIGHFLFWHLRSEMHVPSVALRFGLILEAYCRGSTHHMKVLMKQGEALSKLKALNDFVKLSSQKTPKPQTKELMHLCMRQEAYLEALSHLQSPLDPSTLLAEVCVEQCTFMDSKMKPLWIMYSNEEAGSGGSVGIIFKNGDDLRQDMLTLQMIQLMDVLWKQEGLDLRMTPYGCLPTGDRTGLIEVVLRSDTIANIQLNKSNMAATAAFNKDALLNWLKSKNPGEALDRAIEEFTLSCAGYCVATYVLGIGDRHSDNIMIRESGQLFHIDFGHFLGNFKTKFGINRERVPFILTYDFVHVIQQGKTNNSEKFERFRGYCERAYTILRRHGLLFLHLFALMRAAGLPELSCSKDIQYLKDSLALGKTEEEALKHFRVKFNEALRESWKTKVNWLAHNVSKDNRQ
Sequence of PIK3Cδ (P27986 whole entry partner, looked up): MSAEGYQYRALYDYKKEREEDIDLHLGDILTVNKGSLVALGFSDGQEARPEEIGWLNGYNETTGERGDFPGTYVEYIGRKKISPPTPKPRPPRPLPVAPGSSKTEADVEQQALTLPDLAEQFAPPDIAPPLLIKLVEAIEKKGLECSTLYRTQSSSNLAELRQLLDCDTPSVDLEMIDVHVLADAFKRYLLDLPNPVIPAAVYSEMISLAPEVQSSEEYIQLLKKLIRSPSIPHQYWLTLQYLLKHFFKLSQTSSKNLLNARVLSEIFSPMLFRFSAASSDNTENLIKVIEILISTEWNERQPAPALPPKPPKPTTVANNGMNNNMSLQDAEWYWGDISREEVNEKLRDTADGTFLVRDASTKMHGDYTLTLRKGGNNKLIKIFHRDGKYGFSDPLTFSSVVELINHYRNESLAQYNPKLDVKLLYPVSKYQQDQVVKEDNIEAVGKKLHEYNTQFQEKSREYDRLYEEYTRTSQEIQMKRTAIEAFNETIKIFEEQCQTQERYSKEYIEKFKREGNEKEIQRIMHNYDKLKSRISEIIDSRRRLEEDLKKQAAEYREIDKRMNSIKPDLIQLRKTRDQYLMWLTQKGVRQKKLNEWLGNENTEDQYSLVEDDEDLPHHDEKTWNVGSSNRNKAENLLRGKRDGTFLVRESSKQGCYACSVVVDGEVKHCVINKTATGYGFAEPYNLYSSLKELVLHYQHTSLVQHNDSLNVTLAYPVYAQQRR
Sequence of ATM (Q13315 whole entry, looked up): as the sequence (Q13315 whole entry, looked up) above

Regarding `CC(C)n1c(=O)n(C)c2nnc3cc(F)c(-c4ccc(OCCCN5CCCCC5)nc4)cc3c21` [Example 1, 7-fluoro-1-isopropyl-3-methyl-8-(6-(3-(piperidin-1-yl)propoxy)pyridin-3-yl)-1H-imidazo[4,5-c]cinnolin-2(3H)-one], the IC50 is more than 10 µM against PIK3Cβ (p110β); more than 10 µM against ATR; more than 10 µM on PI3Kα (p110α/p85a); more than 10 µM against PIK3Cγ (pp110γ); more than 10 µM against mTOR; 0.0015 µM in assay [1]. Also, the values for the concentration for half-maximal inhibition (IC50) against ATM and on PIK3Cδ were 0.0019 µM and more than 10 µM, respectively.
For `CC(C)n1c(=O)n(C)c2nnc3cc(F)c(-c4ccc(OCCCN(C)C)nc4)cc3c21` [Example 2, 8-(6-(3-(dimethylamino)propoxy)pyridin-3-yl)-7-fluoro-1-isopropyl-3-methyl-1H-imidazo[4,5-c]cinnolin-2(3H)-one], the IC50 is more than 10 µM at PIK3Cβ (p110β); more than 10 µM against ATR; more than 10 µM against PI3Kα (p110α/p85a); more than 10 µM against PIK3Cγ (pp110γ); more than 10 µM on mTOR; 0.27 µM in assay [1]. In addition, the half-maximal inhibitory concentration (IC50) against ATM was 0.0043 µM; against PIK3Cδ, more than 10 µM.
As to `CC(C)n1c(=O)n(C)c2nnc3cc(F)c(-c4ccc(N5CCC(N(C)C)CC5)nc4)cc3c21` [Example 4, 8-(6-(4-(dimethylamino)piperidin-1-yl)pyridin-3-yl)-7-fluoro-1-isopropyl-3-methyl-1H-imidazo[4,5-c]cinnolin-2(3H)-one], the half-inhibitory concentration (IC50) on PIK3Cβ (p110β) was more than 10 µM; on ATR, more than 10 µM; on PI3Kα (p110α/p85a) it was more than 10 µM; on PIK3Cγ (pp110γ), more than 10 µM; on mTOR, more than 10 µM; on ATM it was 0.01 µM. The same compound registered an IC50 against PIK3Cδ of more than 10 µM.
For the compound `CC(C)n1c(=O)n(C)c2nnc3cc(F)c(-c4ccc(N5CCC(CN(C)C)C5)nc4)cc3c21` (stereo not shown) [Example 5, 8-(6-(3-((dimethylamino)methyl)pyrrolidin-1-yl)pyridin-3-yl)-7-fluoro-1-isopropyl-3-methyl-1H-imidazo[4,5-c]cinnolin-2(3H)-one], the IC50 on PIK3Cβ (p110β) is more than 10 µM; against ATR it was more than 10 µM; on PI3Kα (p110α/p85a), more than 10 µM; on PIK3Cγ (pp110γ) it was more than 10 µM; on mTOR, more than 10 µM; at ATM, 0.065 µM. Besides, the IC50 against PIK3Cδ is more than 10 µM.
On to `CC(C)n1c(=O)n(C)c2nnc3cc(F)c(-c4ccc(COCCN5CCCC5)nc4)cc3c21` [Example 8, 7-fluoro-1-isopropyl-3-methyl-8-(6-((2-(pyrrolidin-1-yl)ethoxy)methyl)pyridin-3-yl)-1H-imidazo[4,5-c]cinnolin-2(3H)-one], for which the IC50 is more than 10 µM at PIK3Cβ (p110β); more than 10 µM on ATR; more than 10 µM against PI3Kα (p110α/p85a); more than 10 µM against PIK3Cγ (pp110γ); more than 10 µM on mTOR; 0.051 µM against ATM. On PIK3Cδ, this compound returned an IC50 of more than 10 µM.
For the compound `CC(C)n1c(=O)n(C)c2nnc3cc(F)c(-c4ccc(COCCN5CC[C@@H](F)C5)nc4)cc3c21` [Example 9, (R)-7-fluoro-8-(6-((2-(3-fluoropyrrolidin-1-yl)ethoxy)methyl)pyridin-3-yl)-1-isopropyl-3-methyl-1H-imidazo[4,5-c]cinnolin-2(3H)-one], the IC50 at PIK3Cβ (p110β) is more than 10 µM; on ATR it was more than 10 µM; against PI3Kα (p110α/p85a), more than 10 µM; at PIK3Cγ (pp110γ) it was more than 10 µM; against mTOR, more than 10 µM; at ATM, 0.035 µM. Further, at PIK3Cδ, the IC50 was more than 10 µM.
Take `CC(C)n1c(=O)n(C)c2nnc3cc(F)c(-c4ccc(COCCN5CCC(F)CC5)nc4)cc3c21` [Example 10, 7-fluoro-8-(6-((2-(4-fluoropiperidin-1-yl)ethoxy)methyl)pyridin-3-yl)-1-isopropyl-3-methyl-1H-imidazo[4,5-c]cinnolin-2(3H)-one]: the IC50 at PIK3Cβ (p110β), on ATR, on PI3Kα (p110α/p85a), against PIK3Cγ (pp110γ), against mTOR and at PIK3Cδ was more than 10 µM in each case.
In the case of `CC(C)n1c(=O)n(C)c2nnc3cc(F)c(-c4ccc(C(=O)NCCN(C)C)nc4)cc3c21` [Example 12, N-(2-(dimethylamino)ethyl)-5-(7-fluoro-1-isopropyl-3-methyl-2-oxo-2,3-dihydro-1H-imidazo[4,5-c]cinnolin-8-yl)picolinamide], the half-maximal inhibitory concentration (IC50) against PIK3Cβ (p110β) is more than 10 µM; at ATR, more than 10 µM; at PI3Kα (p110α/p85a), more than 10 µM; against PIK3Cγ (pp110γ), more than 10 µM; against mTOR, more than 10 µM; at ATM, 0.363 µM. The compound further yielded an IC50 against PIK3Cδ of more than 10 µM.
As to `CC(C)n1c(=O)n(C)c2nnc3cc(F)c(-c4ccc(OCCCN(C)C)nc4F)cc3c21` [Example 17, 8-(6-(3-(dimethylamino)propoxy)-2-fluoropyridin-3-yl)-7-fluoro-1-isopropyl-3-methyl-1,3-dihydro-2H-imidazo[4,5-c]cinnolin-2-one], the IC50 on ATM is 0.007 µM.
The same measure, in the same setting: for `Cn1c(=O)n(C2CCOCC2)c2c3cc(-c4ccc(OCCCN5CCCCC5)nc4)c(F)cc3nnc21` [Example 18, 7-fluoro-3-methyl-8-(6-(3-(piperidin-1-yl)propoxy)pyridin-3-yl)-1-(tetrahydro-2H-pyran-4-yl)-1H-imidazo[4,5-c]cinnolin-2(3H)-one] the value was 0.0048 µM; for `CN(C)CCCOc1ccc(-c2cc3c(cc2F)nnc2c3n(C3CCOCC3)c(=O)n2C)cn1` [Example 19, 8-(6-(3-(dimethylamino)propoxy)pyridin-3-yl)-7-fluoro-3-methyl-1-(tetrahydro-2H-pyran-4-yl)-1H-imidazo[4,5-c]cinnolin-2(3H)-one], 0.013 µM.
Still for that read-out and setting: for `Cn1c(=O)n(C2CCOCC2)c2c3cc(-c4ccc(OCCCN5CCCC5)nc4)c(F)cc3nnc21` [Example 20, 7-fluoro-3-methyl-8-(6-(3-(pyrrolidin-1-yl)propoxy)pyridin-3-yl)-1-(tetrahydro-2H-pyran-4-yl)-1H-imidazo[4,5-c]cinnolin-2(3H)-one] the value was 0.006 µM; for `CN(C)CC1CCN(c2ccc(-c3cc4c(cc3F)nnc3c4n(C4CCOCC4)c(=O)n3C)cn2)C1` (stereo not shown) [Example 21, 8-(6-(3-((dimethylamino)methyl)pyrrolidin-1-yl)pyridin-3-yl)-7-fluoro-3-methyl-1-(tetrahydro-2H-pyran-4-yl)-1H-imidazo[4,5-c]cinnolin-2(3H)-one], 0.097 µM.
Same read-out and setting: under `Cn1c(=O)n(C2CCOCC2)c2c3cc(-c4ccc(OCCCN5CCC(F)CC5)nc4)c(F)cc3nnc21` [Example 24, 7-fluoro-8-(6-(3-(4-fluoropiperidin-1-yl)propoxy)pyridin-3-yl)-3-methyl-1-(tetrahydro-2H-pyran-4-yl)-1H-imidazo[4,5-c]cinnolin-2(3H)-one] stands more than 1 µM; under `Cn1c(=O)n(C2CCOCC2)c2c3cc(-c4ccc(OCCCN5CC[C@@H](F)C5)nc4)c(F)cc3nnc21` [Example 25, (R)-7-fluoro-8-(6-(3-(3-fluoropyrrolidin-1-yl)propoxy)pyridin-3-yl)-3-methyl-1-(tetrahydro-2H-pyran-4-yl)-1H-imidazo[4,5-c]cinnolin-2(3H)-one], more than 1 µM.

For orientation: IC50 means the concentration that gives 50% inhibition. Lower therefore signals higher potency.
